{"source": "patent US20080003438A1", "about": "“Heterocyclic siloxanes for use in biocidal coatings and materials” (Auburn University, priority 2002, published 2008)", "key": {"[1]": {"system": "MS2 phage", "test": "Antiviral activity of chlorinated coated surfaces, modified AATCC Method 100-1998", "format": "cell-based, MS2 virus", "description": "Soft and hard surfaces were treated by exposure to a solution of 3-triethoxysilylpropyl-5,5-dimethylhydantoin, as prepared in Example 1, and then halogenated with hypochlorite bleach, prior to being exposed to a challenge inoculum of a virus (MS2 phage). […] Soft surfaces used in these experiments were swatches of woven cotton textiles, and slabs cut from a standard kitchen sponge. Hard surfaces used were porcelain and marble tiles.\nFor the preparation of antimicrobial textiles, fabric and sponge samples were immersed in 5% solution of 3-triethoxysilylpropyl-5,5-dimethylhydantoin and dried in a convection oven at 90° C. for two hours. Chlorination of the coated cellulose materials was accomplished by placing them in the wash chamber of a standard, household washing machine, and processing them through a normal, cold water small load cycle, with one rinse. The washing solution contained 100 mL of CLOROX ULTRA (sodium hypochlorite) per load. […] Chlorine contents were calculated and expressed as ppm Cl^+. […]\nHard surface samples were exposed to the 3-triethoxysilylpropyl-5,5-dimethylhydantoin by using a sponge soaked in the 5% solution, before transfer to a drying oven at 90° C. for two hours. […] Chlorine bound to hard surfaces was determined by iodometric/thiosulfate titration, and chlorine contents were expressed as μg Cl^+ per square cm. […]"}, "[2]": {"system": "Proteus mirabilis bacteria", "test": "Odor control: ammonia in head space above inoculated wood pulp pads", "format": "cell-based", "conditions": "coated, chlorinated wood pulp pads, 37° C., six hours", "description": "3-triethoxysilylpropyl-5,5-dimethylhydantoin, prepared as described in Example 1, was used to treat non-woven pads consisting of 1 gram of a wood pulp matrix such as is used in diapers and incontinence products. A 5% solution prepared in a distilled water and ethanol 1:1 mixture was applied to pads of the wood pulp fibers, and they were then left to soak for 5 minutes. Excess solution was vacuum suctioned from the pads, which were then dried in an oven at 90° C. for two hours. Untreated pads were also subjected to exposure to water and ethanol as controls, and were similarly dried.\nDried coated test samples and uncoated control pads were then treated by exposure to 10% sodium hypochlorite solution for 15 minutes, after which they were rinsed exhaustively with distilled water, and then vacuum dried to remove any unbound, free chlorine. Additional control pads consisted of wood pulp coated with 3-triethoxysilylpropyl-5,5-dimethylhydantoin but not exposed to the hypochlorite bleach charge. […]\nAll test and control pads were then exposed to an inoculum designed to generate ammonia odor as a result of bacterial action on urine, simulating events in an infant or adult human diaper. […] At the end of this period the samples were removed from the incubator, and the amount of ammonia gas in the head space above each pad was measured as an indicator of the degree of odor generated in the urine. […]"}, "[3]": {"system": "Escherichia coli (ATCC 2666)", "test": "Challenge of treated cotton swatches, modified AATCC Method 100", "format": "cell-based", "conditions": "contact time interval 60-120 minutes", "description": "(§1) Treated cotton swatches were challenged with S. aureus (ATCC 6538) and Escherichia coli (ATCC 2666) at a concentration of between 10^8 and 10^9 CFU/mL in pH 7 phosphate buffer solution using a modified version of AATCC Method 100. The swatches were quenched with 0.02 N sodium thiosulfate solution at contact times of 10, 30, 60, and 120 min. Serial dilutions of the solutions contacting the swatches were plated on nutrient agar, incubated for 48 hours at 37° C., and plate counts were made to determine the presence of viable bacteria. […] The control sample (cotton soaked in 10% bleach, rinsed, and dried) gave only a 0.4 log reduction at 30 minutes. […] The control sample (cotton soaked in 10% bleach, rinsed, and dried) gave a 0 log reduction at 120 minutes."}, "[4]": {"system": "S. aureus (ATCC 6538)", "test": "Challenge of treated cotton swatches, modified AATCC Method 100", "format": "cell-based", "conditions": "coated chlorinated cotton swatches, contact time interval 10-30 minutes, pH 7 phosphate buffer", "description": "as §1"}}}
{"smiles": "CCO[Si](CCCN1C(=O)NC(C)(C)C1=O)(OCC)OCC", "note": "[3-triethoxysilylpropyl-5,5-dimethylhydantoin]", "values": [{"measurement": "Log 10 reduction of MS2 titer", "setting": "[1]; cellulose substrates (textile and sponge), 24 hours of contact", "result": "approximately 4 logs"}, {"measurement": "Log 10 reduction of MS2 titer", "setting": "[1]; hard surfaces, contact times of as little as 6 hours", "result": "approximately 2 logs"}, {"measurement": "odor detected by the human nose", "setting": "[2]", "result": "no detectable odor whatsoever"}, {"measurement": "ammonia in the head space above the pads", "setting": "[2]; urine + urea + P. mirabilis, lower limit of detection 0.25 ppm", "result": "< 0.25", "unit": "ppm"}, {"measurement": "log reduction of E. coli", "setting": "[3]", "result": "> 5.9", "unit": "logs"}, {"measurement": "log reduction of S. aureus", "setting": "[4]", "result": "> 5.7", "unit": "logs"}]}
